The text below walks through data of patent US20250255850A1, “PHARMACEUTICAL COMPOSITIONS FOR TREATING NEUROLOGICAL CONDITIONS” (YISSUM RESEARCH DEVELOPMENT COMPANY OF THE HEBREW …, priority 2021, published 2025).

In series [1] the test system is 3-nitrotyrosine. Kind of series: Confocal microscopy of 3-nitrotyrosine in cortical neurons, SHANK3 model mice. The series is classed as in vivo, mouse. As to conditions: cortical region, compared to neurons of untreated mice. The protocol: FIGS. 3G-H present confocal microscopy images (FIG. 3G) and a quantitative bar graph (FIG. 3H) showing nitro-tyrosine in the cortical region of neurons of wild-type mice (WT), SHANK3 model mice (M1) and SHANK3 model mice treated with 7-NI (M1+7-NI).
3-nitrotyrosine levels in were also evaluated by confocal microscopy of the cortical region in neurons of the tested mice, and the obtained data is presented in FIGS. 3G and 3H.

The subject of series [2] is Mutant mice (CNTNAP2 and SHANK3 mouse models). Put plainly: Sociability test, 7-NI-treated mutant mice (Example 3). The series is classed as in vivo. The following applies: 7-NI IP 80 mg/kg/day for 7 days; mutant mice vs vehicle. The protocol: (§1) Behavioral testing started after 2 hours of treatment.
(§2) Three-chambered sociability test (see, FIG. 4B): Sociability and preference for social novelty and social recognition were tested in a three-chambered apparatus. The subjected mouse was first placed in the central, neutral chamber and allowed to explore for 10 minutes with all the doors closed. Next, doors were opened and the mouse was allowed to freely explore the other two empty chambers (1 and 2) for an additional 10 minutes. Lack of side preference was confirmed during this habituation.
(§3) Two cylindrical wire cages were placed, one in chamber 1 and the other in chamber 2. For the sociability test, the test animal was introduced to the middle chamber and allowed to adjust for 5 minutes. Then, an unfamiliar mouse was introduced into a wire cage in one of the side-chambers, and the other side-chamber remained empty. The time spent by the test mouse exploring the wire cage with an unfamiliar mouse inside was recorded for 5 minutes.
7-nitroindazole (7-NI) is a selective inhibitor of neuronal nitric oxide synthase. Mutant mice were administered with 7-NI […] (IP), 80 mg/kg/day for 7 days, as described hereinabove. […]

For the next series, the system named is SH-SY5Y cells. Put plainly: Nitrite (Griess) assay in SH-SY5Y cells. The following applies: 7-NI 100 μM 24 hours or 20 nM nNOS siRNA 24 hours. The series is classed as cell-based, human. The protocol:
Human NB SH-SY5Y cells were obtained from the American Type Culture Collection (ATCC) and maintained in Dulbecco's modified Eagle's medium (DMEM) and Ham's F-12 (1:1) supplemented with 10% fetal bovine serum, 2 mM L-glutamine, and 100 U/ml penicillin-G/100 […] streptomycin in a humidified atmosphere (37° C., 5% CO2). Cells were plated onto 25 cm^2 and 75 cm^2 plates at a density of 7.0×10^5 and 2.1×10^6 cells/cm^2 respectively for Western blotting (WB) and 1×10^5 for immunofluorescence. The SH-SY5Y cells were treated with 100 μM 7-nitroindazole (7-NI) for 24 hours (Fujibayashi et al., 2015). This concentration was confirmed in a dose-response experiment (FIG. 14A) using an MTT viability assay.
SH-SY5Y cells were plated in 6 well plates, as well as on 22 mm^2 coverslips at a density of 6.0×10^4 cells/cm^2 and transfected with 20 nM nNOS siRNA (NOSIHSS1072, Invitrogen) for 24 hours, with the use of Lipofectamine RNAi MAX (56530, Invitrogen) according to the manufacturer's protocol. Then cells were washed with phosphate-buffered saline (PBS) and harvested for WB and fixed for immunofluorescence (Fujibayashi et al., 2015).
Released NO was measured with Griess assay Kit (Sigma-Aldrich, Cat. No. 23479) using the manufacturer's instructions.
For orientation: Nitrite, measured by Griess reagent, commonly stands in for NO production.

Series [3] concerns CNTNAP2−/− mutant mice. Put plainly: Elevated plus maze test, CNTNAP2-/- mutant mice (M2). As to conditions: 7-NI i.p. 80 mg/kg daily for 10 days, vs untreated mutant mice. The series is classed as in vivo, mouse. The protocol:
as §1
Elevated plus maze test (see, FIG. 4C): The elevated plus-maze consisted of four arms (30×5 cm), two open, and the other two closed. The platform was made of white plexiglass. The apparatus was elevated 45 cm above the floor. The test, described in, was initiated by placing the mouse on the central platform of the maze, facing one of the open arms, and letting it move freely. Each session lasted 5 min. The time spent in the close and open arms was recorded.
(§4) In another set of tests, the potential effects of inhibiting NO on the cognitive functions was assayed on an additional mouse model of ASD-CNTNAP2−/− mutant mice. The mice were divided into three testing groups: WT mice, CNTNAP2−/− mutant mice (M2), and mutant mice that were administered with 7-NI (M2+7NI).

Series [4] deals with CNTNAP2−/− mutant mice. Kind of series: Three-chamber sociability test, CNTNAP2-/- mutant mice (M2). The series is classed as in vivo, mouse. The following applies: 7-NI i.p. 80 mg/kg daily for 10 days, vs untreated M2. The protocol: as §1, §2, §3, §4
The conditions of series [5]: even in very high doses; Biopharm. Drug Dispos. 2000, 21, 221-228; cited from earlier work.
Series [6] has as its system 3-nitrotyrosine. Kind of series: Western blot of 3-nitrotyrosine in cortical tissue, SHANK3 mutant group (M1). The series is classed as in vivo, mouse. As to conditions: SHANK3 mutant mice treated with 7-NI (M1+7-NI) vs M1. The protocol: as §1
To further corroborate these findings, the expression of 3-nitrotyrosine in cortical tissue of the wild type (WT), compared with the SHANK3 mutant group (M1), and SHANK3 group treated with 7-NI (M1+7-NI), and in cortical tissue of the wild type (WT), compared with the CNTNAP2^(−/−) mutant group (M2), and the CNTNAP2^(−/−) mutant group treated with 7-NI (M2+7—NI) was tested, and the obtained data is presented in FIGS. 3C-D (for M1) and in FIGS. 3E-F (for M2).
For orientation: Immunoblotting shows a protein as a band on a membrane.

A value given as a limit tells only on which side of the number the result lay.

By half-life is commonly meant how long it takes for the measured level to halve. In the case of `O=[N+]([O-])c1cccc2cn[nH]c12` [7-NI, 7-nitroindazole], the “reduction of 3-nitrotyrosine levels in the neurons” value in the series with 3-nitrotyrosine [1] is “about 50%”. Moreover, the “time interacting with the stranger cage (sociability test)” value in series [2] is “spent significantly more time interacting with the stranger cage”. For the same compound, the “nitrite content (Griess assay)” value in the series with SH-SY5Y cells is given as “reduction of nitrite content”. Moreover, the “anxiety like behaviors (elevated plus maze)” value in the series with CNTNAP2−/− mutant mice [3] is given as “exhibited less anxiety like behaviors”. The “time interacting with the stranger mouse (three-chamber sociability)” value in the series with CNTNAP2−/− mutant mice [4] is “spent significantly prolonged time interacting with the stranger mouse”. For the same compound, in series [5], the half-life was at most 2 h. Moreover, the “expression of 3-Ntyr in cortical tissue” value with 3-nitrotyrosine [6] is on record as “reduced the expression of 3-Ntyr”.
